These results are taken from patent US20150111852A1, “1-Di(sec-butyl)-phosphinoyl-pentane (dapa-2-5) as a topical agent” (priority 2013, published 2015).

In data set [1] the test system is oral cavity and pharyngeal surfaces. Briefly: Sensory activity of ODT-A on volunteers. It counts as in vivo, human. The settings on record: 6 to 8 trials per compound. The procedure:
ODT-A was prepared by dissolving the DAPA compound in absolute ethanol, adding a 80% mannitol-20% maltitol mixture of equal weight and then adding an equal volume of distilled water. The mixture was the stirred with a glass rod, and dispensed onto a piece of wax or parchment paper with a disposable plastic pipette. The viscous liquid drop formed was then dried under a heat source for at least 4 hr. The nominal dose of the API in ODT-A ranged from 1 to 3 mg/tablet. The dried tablets weighed on average 150 mg each and when on the dorsal surface of the tongue, rapidly dissolved completely in saliva and coated the oropharyngeal surface. These tablets were suitable for initial pilot studies, but were not uniform in size, were friable, especially in conditions of high ambient humidity, and were not readily amenable to further analytical evaluation.
Sensory Qualities of ODT on the Oral Cavity and Pharyngeal Surfaces The DAPA ODT of Study 2 were evaluated for sensory properties on volunteers. The ODT-A results [see table] are from 6 to 8 trials per compound in several experienced individuals familiar with sensory properties of “cooling agents”. The results of ODT-A will be discussed together with ODT-B and ODT-C.

For another data set, the system named is throat. Briefly: Cold water test after ODT-A (cold discomfort). In kind it is in vivo, human. More on the design: key: If the subject felt “normal coolness” in the throat, the value was “0”; if the water felt “excessively cold” on the throat, it was rated as “+”; if there was “aching cold/discomfort” on the throat, the ranking was “++”. The settings on record: ODT-A on the tongue, ice water drunk 10 min later. The procedure:
After application of ODT-A there were sensations associated with heat abstraction of various intensity and duration. Of particular note was the sensation of “icy or painful” cold was felt with some compounds, but the effect was variable. To isolate this sensation more precisely and reduce variability, ODT-A was placed on the tongue and 10 min later the subject was instructed to drink a mouthful of water previously equilibrated with ice chips. If the subject felt “normal coolness” in the throat, the value was “0”; if the water felt “excessively cold” on the throat, it was rated as “+”; and if there was “aching cold/discomfort” on the throat, the ranking was “++”. The term “cold discomfort” was applied compounds that produced “++”, and this phenomenon could now be reliably defined and identified with the cold water test.

The subject of another data set is oropharynx. Briefly: Chili-pepper sauce irritation test. Also noted: key: If there was no suppression of the irritant/tickling sensations of the sauce, the value was “0”; if there was some suppression, the value was “+”; if there was complete suppression, then the value was “++.”. Particulars: ODT, sauce applied 30 min later; 6 to 8 trials per compound. It counts as in vivo, human. The source says: The “pain” component of inflammation includes irritation, itch, and discomfort and suppression of these endpoints is termed “anti-nociceptive”. To determine if a compound has anti-nociceptive activity, the Inventor has devised a modified capsaicin challenge method to evoke discomfort in the oropharyngx: the chili-pepper sauce irritation test. Chili-pepper sauce placed onto the posterior dorsal surface of the tongue evokes a tickling/irritant sensations in the oropharynx. The sensations associated with the chili pepper sauce are located in the back of the mouth and are clearly recognized and associated with irritation and a desire to clear the throat. In the chili-pepper sauce irritation test, the test compound is delivered using an ODT, as in Study 3, and 30 min later 0.2 to 0.25 mL of the sauce was applied onto the posterior dorsal surface of the tongue (with a syringe or a plastic stick). The chili pepper sauce used here is called Yank Sing® Chili Pepper Sauce (YS Gourmet Productions, Inc., PO Box 26189, San Francisco, Calif. 94126) and is a well-known condiment for use with dim sum (Chinese tea lunch). If there was no suppression of the irritant/tickling sensations of the sauce, the value was “0”; if there was some suppression, the value was “+”; and if there was complete suppression, then the value was “++.” For compounds that gave a ++ score, the irritative signals of the chili-pepper sauce are completely absent, yet the salty taste from the soy sauce of the condiment can still be readily tasted. A “++” result indicated suppression of the irritant effects of chili-pepper sauce. Numerical results are from 6 to 8 trials per compound.

The target of data set [2] is T1, cloned hTRPM8 channel (encoded by the human TRPM8 gene, expressed in CHO cells) (Homo sapiens, UniProt Q7Z2W7).
T1 construct: host or cells: CHO cells, stably transfected
Description: TRPM8 agonist FLIPR Fluo-8 calcium assay. In kind it is cell-based. Particulars: for TRPM8 Relative Potency: DAPA-1-7 = 1. The protocol:
The in vitro effects of test compounds were evaluated on cloned hTRPM8 channel (encoded by the human TRPM8 gene, expressed in CHO cells) using a Fluo-8 calcium kit and a Fluorescence Imaging Plate Reader (FLIPR^TETRA™) instrument.
Test compounds and positive control solutions were prepared by diluting stock solutions in a HEPES-buffered physiological saline (HBPS) solution. The test compound and control formulations were loaded in polypropylene or glass-lined 384-well plates, and placed into the FLIPR instrument (Molecular Devices Corporation, Union City, Calif., USA). The test compounds were evaluated at 4 or 8 concentrations with n=4 replicates per determination. […] The test cells were Chinese Hamster Ovary (CHO) cells stably transfected with human TRPM8 cDNAs.
For the FLIPR^TETRA™ assay, cells were plated in 384-well black wall, flat clear-bottom microtiter plates (Type: BD Biocoat Poly-D-Lysine Multiwell Cell Culture Plate) at approximately 30,000 cells per well. Cells were incubated at 37° C. overnight to reach a near confluent monolayer appropriate for use in a fluorescence assay. The test procedure was to remove the growth media and to add 40 μL of HBPS containing Fluo-8 for 30 min at 37° C. 10 μL of test compound, vehicle, or control solutions in HBPS were added to each well and read for 4 min.
Concentration-response data were analyzed via the FLIPR Control software that is supplied with the FLIPR System (MDS-AT) and fitted to a Hill equation of the following form: […]
where: “Base” is the response at low concentrations of test compound; “Max” is the maximum response at high concentrations; “xhalf” is the EC50, the concentration of test compound producing half-maximal activation; and “rate” is the Hill coefficient. Nonlinear least squares fits were made assuming a simple one-to-one binding model.

T1 sequence (Q7Z2W7 whole entry): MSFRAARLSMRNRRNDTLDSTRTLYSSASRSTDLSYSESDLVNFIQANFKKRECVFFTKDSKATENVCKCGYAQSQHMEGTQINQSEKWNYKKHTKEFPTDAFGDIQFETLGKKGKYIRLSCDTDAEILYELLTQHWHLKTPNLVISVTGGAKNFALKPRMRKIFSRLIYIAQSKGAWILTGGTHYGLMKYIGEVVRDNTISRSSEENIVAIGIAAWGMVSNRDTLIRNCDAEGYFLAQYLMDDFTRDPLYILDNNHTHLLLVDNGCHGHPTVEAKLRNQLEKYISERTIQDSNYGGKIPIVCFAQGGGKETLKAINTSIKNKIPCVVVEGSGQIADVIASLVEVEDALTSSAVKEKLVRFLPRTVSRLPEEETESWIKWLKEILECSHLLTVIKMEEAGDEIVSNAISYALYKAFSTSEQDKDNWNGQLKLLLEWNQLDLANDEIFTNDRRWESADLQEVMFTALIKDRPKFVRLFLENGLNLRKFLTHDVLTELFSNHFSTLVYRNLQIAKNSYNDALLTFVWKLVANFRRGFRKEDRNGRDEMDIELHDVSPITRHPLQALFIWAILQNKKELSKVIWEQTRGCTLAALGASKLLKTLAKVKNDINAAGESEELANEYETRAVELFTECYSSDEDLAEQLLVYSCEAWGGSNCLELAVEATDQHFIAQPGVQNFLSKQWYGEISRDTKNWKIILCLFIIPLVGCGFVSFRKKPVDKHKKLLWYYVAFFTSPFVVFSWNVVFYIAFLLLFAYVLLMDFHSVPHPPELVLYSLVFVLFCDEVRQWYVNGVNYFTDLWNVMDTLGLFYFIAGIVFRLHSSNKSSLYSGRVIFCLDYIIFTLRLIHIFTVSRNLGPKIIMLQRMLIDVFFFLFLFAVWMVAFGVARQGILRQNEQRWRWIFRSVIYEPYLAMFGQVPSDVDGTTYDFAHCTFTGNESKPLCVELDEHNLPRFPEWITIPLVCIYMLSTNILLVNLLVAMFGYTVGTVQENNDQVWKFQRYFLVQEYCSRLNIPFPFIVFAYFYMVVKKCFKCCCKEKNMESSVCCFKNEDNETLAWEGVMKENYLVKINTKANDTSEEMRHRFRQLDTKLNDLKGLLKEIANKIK

As to `CCCCCCP(=O)(C(C)CC)C(C)CC` (stereo not drawn) [DAPA-2-6, 1-Di(sec-butyl) phosphinoyl-hexane], in data set [1], the “Duration” value amounted to 18 min, the “Onset” value is listed as 0.7 min and the “Sensory Quality” value is given as “cool/cold”. Further, the “Cold Discomfort” value with throat was “++”. Further, the Chili test entry in the data set on oropharynx is “++”. Also, in data set [2], the “Relative Potency to L-menthol” value came out at 4.7 and the “TRPM8 Relative Potency” value amounted to 0.87.

Take `CCCCCP(=O)(C(C)CC)C(C)CC` (stereo not drawn) [DAPA-2-5, 1-Di(sec-butyl)-phosphinoyl-pentane]: in data set [1], the “Duration” value is 12 min, the “Onset” value was 0.1 min and the “Sensory Quality” value is listed as “dynamic cool”. The “Cold Discomfort” value in the data set on throat stood at 0. Also, the Chili test entry with oropharynx is “++”. For the same compound, in data set [2], the “Relative Potency to L-menthol” value is on record as 2.2, the “rank in TRPM8 potency among the 21 compounds tested” value was found to be 12 and the “TRPM8 Relative Potency” value was 0.41.

For `CCCCCCP(=O)(C(C)C)C(C)C` [DAPA-1-6, 1-Di(isopropyl)-phosphinoyl-hexane], in data set [1], the “Duration” value was found to be 16 min, the “Onset” value is 0.6 min and the “Sensory Quality” value is recorded as “cool/cold”. Besides, in the data set with throat, the “Cold Discomfort” value is recorded as “++”. Further, the Chili test entry in the data set on oropharynx is listed as “++”. Further, the “Relative Potency to L-menthol” value in data set [2] was determined as 1.6.

As to `CCCCCCCP(=O)(C(C)C)C(C)C` [DAPA-1-7, 1-Di(isopropyl)-phosphinoyl-heptane], in data set [1], the “Duration” value was determined as 16 min, the “Onset” value was 0.6 min and the “Sensory Quality” value is listed as “cool/cold”. For the same compound, the “Cold Discomfort” value in the data set on throat is “+”. Also, in the data set on oropharynx, the Chili test result is recorded as “++”. Also, in data set [2], the “Relative Potency to L-menthol” value is listed as 5.4 and the “TRPM8 Relative Potency” value is 1.

Consider `CCCCCCCP(=O)(C(C)CC)C(C)CC` (stereo not drawn) [DAPA-2-7, 1-Di(sec-butyl) phosphinoyl-heptane], for which, in data set [1], the “Duration” value worked out at 21 min, the “Onset” value is given as 0.7 min and the “Sensory Quality” value was “cool/cold”. Also, in the data set with throat, the “Cold Discomfort” value is “++”. In the data set on oropharynx, the Chili test entry is “++”. In addition, in data set [2], the “Relative Potency to L-menthol” value is given as 3.4 and the “TRPM8 Relative Potency” value turned out to be 0.64.

For `CCCCCCCCP(=O)(C(C)CC)C(C)CC` (stereo not drawn) [DAPA-2-8, 1-Di(sec-butyl) phosphinoyl-octane], in data set [1], the “Duration” value is 27 min, the “Onset” value is given as 1.2 min and the “Sensory Quality” value was “cool”. Besides, the “Cold Discomfort” value in the data set with throat is on record as “+”. Moreover, the Chili test result in the data set with oropharynx is “+”. Further, in data set [2], the “Relative Potency to L-menthol” value turned out to be 2.9 and the “TRPM8 Relative Potency” value was determined as 0.71.
